Experiments:
[1] = Stability in human liver homogenate (metabolic stability in vitro); type: in vitro ADME; settings: read-out: t ½
From the text: DÖRJE, F., WESS, J., LAMBRECHT, G., TACKE, R., […], E. and BRANN, M. R. (1991) Antagonist binding profiles of five cloned human muscarinic receptor subtypes. J. Pharmacol. Exp. Ther., 256: 727-733. • […], M. H. (1990) Rat hippocampal muscarinic autoreceptors are similar to the M2 (cardiac) subtype: comparison with hippocampal M1, atrial M2 and ileal M3 receptors. Brit. J. Pharmacol., 99: 753-761. • PERALTA, E. G., ASHKENAZI, A., WINSLOW, J. W., SMITH, D. H., […], J. and CAPON, D. J. (1987) Distinct primary structures, ligand-binding properties and tissue-specific expression of four human muscarinic acetylcholine receptors. EMBO. J., 6: 3923-3929. Determination of Metabolic Stability (In Vitro)
Method used according to procedures described by DI, L. et al., Journal of Biomolecular Screening, Vol. 8, No. 4, 453-462 (2003).

[2] = molecular target: T1, Muscarine M1 (GPCR-A-MA-ACH M1) (Homo sapiens, UniProt P11229); assay: Muscarine M1 cell-based functional assay (CHO cells, Ca2+ - FLIPR Fluorimetry); settings: human M1, CHO cells; agonist mode, reference agonist acetylcholine; read-out: Cell funct. Musc. M1 Agonism pEC50 (converted)
T1 construct: expressed in transfected cells; host or cells: CHO cells
T1 sequence (P11229 1-460): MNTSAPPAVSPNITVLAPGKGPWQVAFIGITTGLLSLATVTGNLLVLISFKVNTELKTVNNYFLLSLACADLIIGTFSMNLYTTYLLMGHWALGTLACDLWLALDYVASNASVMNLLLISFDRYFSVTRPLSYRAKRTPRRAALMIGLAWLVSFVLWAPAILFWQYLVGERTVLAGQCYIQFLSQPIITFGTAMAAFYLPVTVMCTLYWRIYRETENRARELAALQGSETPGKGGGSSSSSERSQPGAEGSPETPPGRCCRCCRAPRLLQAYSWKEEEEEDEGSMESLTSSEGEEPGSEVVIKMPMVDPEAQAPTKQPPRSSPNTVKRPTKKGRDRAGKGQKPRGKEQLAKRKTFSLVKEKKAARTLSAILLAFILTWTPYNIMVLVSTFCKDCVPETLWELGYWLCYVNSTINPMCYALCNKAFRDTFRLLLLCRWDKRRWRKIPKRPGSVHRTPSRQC

[3] = molecular target: T2, Muscarine M3 (GPCR-A-MA-ACH M3) (Cavia porcellus, UniProt H0W1Z3); assay: Muscarine M3 functional assay, isolated organ (ileum), agonist and antagonist mode; design: species or system Guinea Pig; settings: for EC50: read-out: Cell funct. Musc. M3 Agonism pEC50 (converted)
T2 construct: from tissue; host or cells: guinea pig ileum

[4] = molecular target: T1, Muscarine M1 (GPCR-A-MA-ACH M1); assay: Muscarine M1 receptor binding, 3H-Pirenzepine; settings: human M1, CHO cells, ligand 2 nM, 60 min/22° C., read-out: RB Musc. M1 3H-Pirenzepine pKi (converted)
Summary of the method: (§1)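 Human M1 ([3H]-pirenzepine), M3, and M4 ([3H]-4DAMP or [3H]-oxotremorine) receptor preparations incubated with radioligand and compound, first at 10 μM, then at 10-fold lower concentrations if inhibition exceeded 40%. Bound ligand separated by glass-fibre filtration and counted by scintillation. IC50 from Hill fit, converted to Ki via Cheng-Prusoff, reported as pKi.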

[5] = molecular target: T3, Muscarine M3 (GPCR-A-MA-ACH M3) (Homo sapiens, UniProt P20309); assay: Muscarine M3 receptor binding; settings: human M3, CHO cells; receptor binding
T3 construct: expressed in transfected cells; host or cells: CHO cells

[6] = molecular target: T4, Muscarine M4 (GPCR-A-MA-ACH M4) (Homo sapiens, UniProt P08173); assay: Muscarine M4 receptor binding, 3H-Oxotremorine; settings: human M4, CHO cells; receptor binding, ligand 6 nM, 30 min/25° C.; read-out: RB Musc. M4 3H-Oxotremorine pKi (converted)
T4 construct: expressed in transfected cells; host or cells: CHO cells
T4 sequence (P08173 1-479): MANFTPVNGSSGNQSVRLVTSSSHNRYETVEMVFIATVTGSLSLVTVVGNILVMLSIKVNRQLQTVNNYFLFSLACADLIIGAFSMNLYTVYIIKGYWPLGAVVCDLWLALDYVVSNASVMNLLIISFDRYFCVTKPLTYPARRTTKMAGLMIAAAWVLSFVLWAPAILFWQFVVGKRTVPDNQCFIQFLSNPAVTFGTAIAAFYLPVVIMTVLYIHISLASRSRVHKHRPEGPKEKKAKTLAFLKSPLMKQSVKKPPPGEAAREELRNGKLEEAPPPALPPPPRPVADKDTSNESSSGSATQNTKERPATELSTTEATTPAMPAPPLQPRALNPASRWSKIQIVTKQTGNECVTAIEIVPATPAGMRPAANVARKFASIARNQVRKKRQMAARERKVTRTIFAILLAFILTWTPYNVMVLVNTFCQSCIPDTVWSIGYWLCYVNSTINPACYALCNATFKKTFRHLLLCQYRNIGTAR
Summary of the method: as §1

T3 sequence (P20309 whole entry): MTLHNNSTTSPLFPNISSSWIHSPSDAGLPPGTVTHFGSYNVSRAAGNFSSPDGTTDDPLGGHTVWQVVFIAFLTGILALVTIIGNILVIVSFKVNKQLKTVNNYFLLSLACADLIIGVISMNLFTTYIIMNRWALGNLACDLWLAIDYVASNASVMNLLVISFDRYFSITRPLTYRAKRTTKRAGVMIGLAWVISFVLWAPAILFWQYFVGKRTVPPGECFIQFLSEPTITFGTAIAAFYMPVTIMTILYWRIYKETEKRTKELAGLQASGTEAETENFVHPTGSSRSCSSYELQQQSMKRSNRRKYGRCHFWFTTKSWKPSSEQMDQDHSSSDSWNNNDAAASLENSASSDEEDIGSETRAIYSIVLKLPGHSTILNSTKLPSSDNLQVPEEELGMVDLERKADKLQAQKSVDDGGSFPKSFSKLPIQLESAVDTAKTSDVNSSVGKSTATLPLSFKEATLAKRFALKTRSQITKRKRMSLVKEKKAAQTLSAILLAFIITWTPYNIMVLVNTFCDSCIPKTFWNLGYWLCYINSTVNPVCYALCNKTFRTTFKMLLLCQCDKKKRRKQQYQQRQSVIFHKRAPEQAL
T2 sequence (H0W1Z3 1-590): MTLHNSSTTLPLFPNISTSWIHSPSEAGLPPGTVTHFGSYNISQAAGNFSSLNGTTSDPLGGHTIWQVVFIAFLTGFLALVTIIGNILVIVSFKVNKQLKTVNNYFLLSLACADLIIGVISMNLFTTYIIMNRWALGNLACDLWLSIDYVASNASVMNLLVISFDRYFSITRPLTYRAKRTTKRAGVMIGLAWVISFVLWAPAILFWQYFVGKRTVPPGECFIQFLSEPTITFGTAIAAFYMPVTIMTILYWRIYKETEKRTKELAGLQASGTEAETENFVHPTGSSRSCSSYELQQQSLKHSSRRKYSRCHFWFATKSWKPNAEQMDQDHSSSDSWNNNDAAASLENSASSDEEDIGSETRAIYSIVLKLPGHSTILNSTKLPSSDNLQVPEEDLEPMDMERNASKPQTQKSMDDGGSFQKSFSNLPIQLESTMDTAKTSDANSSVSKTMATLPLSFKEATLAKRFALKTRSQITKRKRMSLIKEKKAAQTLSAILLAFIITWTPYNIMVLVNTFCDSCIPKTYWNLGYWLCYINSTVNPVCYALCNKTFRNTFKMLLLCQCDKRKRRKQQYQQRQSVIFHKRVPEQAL

CN1CCC=C(c2n[nH]cc2SCCC=C(F)F)C1 [Compound 22J, 3-[4-(4,4-Difluoro-but-3enylsulfanyl)-1H-pyrazol-3-yl]-1,2,5,6-tetrahydro-1-methylpyridine]
half-life [1]: 2.15 h
EC50 [2]: 39.8 nM
Kb [3]: > 1000 nM
EC50 [3]: > 1000 nM
Ki [4]: 631 nM
Ki [5]: 316 nM
Ki [6]: 63.1 nM

C=CCCCSc1c[nH]nc1C1=CCCN(C)C1 [Compound 22L]
half-life [1]: 0.933 h
EC50 [2]: 10 nM
Kb [3]: > 1000 nM
EC50 [3]: > 1000 nM
Ki [4]: 794 nM
Ki [5]: 316 nM
Ki [6]: 63.1 nM

CCOCCSc1c[nH]nc1C1=CCCN(C)C1 [Compound 22O, 3-[4-(2-Ethoxy-ethylsulfanyl)-1H-pyrazol-3-yl]-1,2,5,6-tetrahydro-1-methylpyridine]
half-life [1]: 4.08 h
EC50 [2]: 31.6 nM
Kb [3]: > 1000 nM
EC50 [3]: > 1000 nM
Ki [4]: 7940 nM
Ki [5]: 2510 nM
Ki [6]: 398 nM

C=CCCCOc1c[nH]nc1C1=CCCN(C)C1 [Compound 33F, 3-(4-Pent-4-enyloxy-1H-pyrazol-3-yl)-1,2,5,6-tetrahydro-1-methylpyridine]
half-life [1]: 3.83 h
EC50 [2]: 39.8 nM
Kb [3]: > 1000 nM
EC50 [3]: > 1000 nM
Ki [4]: 3980 nM
Ki [5]: 1000 nM
Ki [6]: 316 nM

CCCCCOc1c[nH]nc1C1=CCCN(C)C1 [Compound 33G, 3-(4-Pentyloxy-1H-pyrazol-3-yl)-1,2,5,6-tetrahydro-1-methylpyridine]
half-life [1]: 0.933 h
EC50 [2]: 25.1 nM
Kb [3]: > 1000 nM
EC50 [3]: > 1000 nM
Ki [4]: 1580 nM
Ki [5]: 794 nM
Ki [6]: 126 nM

From patent US8735388B2, “Heterocyclic compounds with affinity to muscarinic receptors” (Abbvie B. V. A., priority 2007, dated 2014)
